In article PMC8491401, “Phytochemical analysis, antioxidant and in vitro β-galactosidase inhibition activities of Juniperus phoenicea and Calicotome villosa methanolic extracts” (BMC Chemistry, 2021):
Where two headings read alike, the source gives them in different places.

How the values were obtained:
[1] = target: T1, β-Galactosidase from Aspergillus oryzae (Aspergillus oryzae, UniProt Q2UCU3); assay: ONPG hydrolysis, absorbance at […] nm; assay type: biochemical
T1 construct: gene lacA; commercial enzyme from Sigma-Aldrich, secreted fungal enzyme; construct details not given
T1 sequence (Q2UCU3 19-1005): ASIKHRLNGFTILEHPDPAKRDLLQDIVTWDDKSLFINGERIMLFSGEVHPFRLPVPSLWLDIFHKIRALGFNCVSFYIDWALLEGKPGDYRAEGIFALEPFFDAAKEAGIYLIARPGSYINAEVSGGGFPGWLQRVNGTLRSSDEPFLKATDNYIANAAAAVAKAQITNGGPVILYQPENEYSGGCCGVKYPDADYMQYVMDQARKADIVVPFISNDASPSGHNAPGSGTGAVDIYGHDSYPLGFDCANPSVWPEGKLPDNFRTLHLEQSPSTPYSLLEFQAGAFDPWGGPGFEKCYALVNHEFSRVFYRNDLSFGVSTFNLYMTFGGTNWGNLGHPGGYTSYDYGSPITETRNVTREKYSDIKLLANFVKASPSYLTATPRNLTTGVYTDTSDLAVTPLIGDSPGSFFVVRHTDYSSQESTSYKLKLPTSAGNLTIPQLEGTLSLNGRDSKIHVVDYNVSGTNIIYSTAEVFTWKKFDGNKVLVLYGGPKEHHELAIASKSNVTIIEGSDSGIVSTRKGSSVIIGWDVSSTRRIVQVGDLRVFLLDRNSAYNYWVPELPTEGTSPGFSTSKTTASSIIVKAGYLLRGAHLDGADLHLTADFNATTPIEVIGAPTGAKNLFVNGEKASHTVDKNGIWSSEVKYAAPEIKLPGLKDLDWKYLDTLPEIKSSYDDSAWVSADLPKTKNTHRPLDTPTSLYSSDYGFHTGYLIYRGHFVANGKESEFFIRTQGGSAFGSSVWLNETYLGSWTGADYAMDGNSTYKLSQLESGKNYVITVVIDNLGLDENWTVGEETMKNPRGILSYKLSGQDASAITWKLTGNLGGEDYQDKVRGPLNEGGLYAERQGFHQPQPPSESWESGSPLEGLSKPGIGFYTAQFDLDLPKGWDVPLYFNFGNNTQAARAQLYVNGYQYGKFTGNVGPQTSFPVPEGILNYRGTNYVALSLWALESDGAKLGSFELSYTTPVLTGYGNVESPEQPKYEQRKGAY

[2] = target: T1, β-Galactosidase from Aspergillus oryzae; assay: Lineweaver-Burk, ONPG hydrolysis; assay type: biochemical; settings: pH 4.5, 30 °C, mixed, read-out: Ki (mg/ml) (converted)
Source text: Lineweaver-Burk, ONPG hydrolysis on β-Galactosidase from Aspergillus oryzae

[3] = substrate: O=[N+]([O-])c1ccccc1O[C@@H]1O[C@H](CO)[C@H](O)[C@H](O)[C@H]1O; assay: Lineweaver-Burk, ONPG hydrolysis; assay type: biochemical, Aspergillus oryzae; settings: pH 4.5, 30 °C, no inhibitor
Source text: Lineweaver-Burk, ONPG hydrolysis on β-Galactosidase from Aspergillus oryzae | Km and Vmax were obtained by a typical double reciprocal Lineweaver Burk plot

Molecule: OC[C@H]1OC(O)[C@H](O)[C@@H](O)[C@H]1O (stereo partly shown) [Galactose]
- IC50 ([1]; ONPG 20 µmol in 4 ml, 0.1 M citrate-phosphate pH 4.5, 30 °C, mixed): 3.33 mM
- Ki [2]: 10.4 mM

Molecule: C[C@@H]1O[C@@H](OC[C@H]2O[C@@H](Oc3c(-c4ccc(O)c(O)c4)oc4cc(O)cc(O)c4c3=O)[C@H](O)[C@@H](O)[C@@H]2O)[C@H](O)[C@H](O)[C@H]1O [Rutin]
- IC50 [1]: 0.123 mM

B1: β-Galactosidase from Aspergillus oryzae (Aspergillus oryzae RIB40) (protein)
chain: ASIKHRLNGFTILEHPDPAKRDLLQDIVTWDDKSLFINGERIMLFSGEVHPFRLPVPSLWLDIFHKIRALGFNCVSFYIDWALLEGKPGDYRAEGIFALEPFFDAAKEAGIYLIARPGSYINAEVSGGGFPGWLQRVNGTLRSSDEPFLKATDNYIANAAAAVAKAQITNGGPVILYQPENEYSGGCCGVKYPDADYMQYVMDQARKADIVVPFISNDASPSGHNAPGSGTGAVDIYGHDSYPLGFDCANPSVWPEGKLPDNFRTLHLEQSPSTPYSLLEFQAGAFDPWGGPGFEKCYALVNHEFSRVFYRNDLSFGVSTFNLYMTFGGTNWGNLGHPGGYTSYDYGSPITETRNVTREKYSDIKLLANFVKASPSYLTATPRNLTTGVYTDTSDLAVTPLIGDSPGSFFVVRHTDYSSQESTSYKLKLPTSAGNLTIPQLEGTLSLNGRDSKIHVVDYNVSGTNIIYSTAEVFTWKKFDGNKVLVLYGGPKEHHELAIASKSNVTIIEGSDSGIVSTRKGSSVIIGWDVSSTRRIVQVGDLRVFLLDRNSAYNYWVPELPTEGTSPGFSTSKTTASSIIVKAGYLLRGAHLDGADLHLTADFNATTPIEVIGAPTGAKNLFVNGEKASHTVDKNGIWSSEVKYAAPEIKLPGLKDLDWKYLDTLPEIKSSYDDSAWVSADLPKTKNTHRPLDTPTSLYSSDYGFHTGYLIYRGHFVANGKESEFFIRTQGGSAFGSSVWLNETYLGSWTGADYAMDGNSTYKLSQLESGKNYVITVVIDNLGLDENWTVGEETMKNPRGILSYKLSGQDASAITWKLTGNLGGEDYQDKVRGPLNEGGLYAERQGFHQPQPPSESWESGSPLEGLSKPGIGFYTAQFDLDLPKGWDVPLYFNFGNNTQAARAQLYVNGYQYGKFTGNVGPQTSFPVPEGILNYRGTNYVALSLWALESDGAKLGSFELSYTTPVLTGYGNVESPEQPKYEQRKGAY
notes: commercial enzyme from Sigma-Aldrich, secreted fungal enzyme; construct details not given
- Km [3]: 1310 ± 91 µM
